Experimental data reported in PMC8248323 (Clinical Pharmacology in Drug Development, 2021).
Marks after values point to notes of the source that are not given here.

Test: Phase 1 DDI study 004 part B: midazolam
Conditions: for effect of lemborexant coadministration on exposure: coadministration with lemborexant 10 mg; for AUC: human, plasma, Geometric LSM
[1] = coadministration of lemborexant with bupropion
[2] = with lemborexant / without lemborexant

| Compound | AUC0‐t metabolite/parent ratio (bupropion with lemborexant) [%] | AUC0‐t metabolite/parent ratio (bupropion without lemborexant) [%] | decrease in AUC0‐t [1] [%] | decrease in Cmax [1] [%] | Cmax, Geometric LSM (midazolam 2 mg + bupropion 75 mg + lemborexant 10 mg daily) | AUC0‐t, Geometric LSM (midazolam 2 mg + bupropion 75 mg + lemborexant 10 mg daily (n = 28)) | AUC0‐t, Geometric LSM (midazolam 2 mg + bupropion 75 mg single dose, without lemborexant (n = 27)) [ng·h/mL] | Cmax, Geometric LSM (midazolam 2 mg + bupropion 75 mg, without lemborexant) [ng/mL] | AUC0‐t, Geometric Mean Ratio (90%CI) [2] | Cmax, Geometric Mean Ratio (90%CI) [2] | effect of lemborexant coadministration on exposure | effect of lemborexant coadministration on exposure (listed as midazolam) | AUC (AUC0‐inf, midazolam 2 mg + bupropion 75 mg + lemborexant 10 mg daily) [ng·h/mL] | AUC (AUC0‐inf, midazolam 2 mg + bupropion 75 mg, without lemborexant) [ng·h/mL] | AUC (AUC0‐t, midazolam 2 mg + bupropion 75 mg + lemborexant 10 mg daily (n = 28)) [ng·h/mL] | AUC (AUC0‐t, midazolam 2 mg + bupropion 75 mg single dose, without lemborexant (n = 27)) [ng·h/mL] | AUC0‐inf, Geometric Mean Ratio (90%CI) [2] |
| --- | --- | --- | --- | --- | --- | --- | --- | --- | --- | --- | --- | --- | --- | --- | --- | --- | --- |
| C[C@@H]1NC(C)(C)CO[C@@]1(O)c1cccc(Cl)c1 [[S,S]‐hydroxylated bupropion] | 124 | 88.7 | 24.5 | 17 | 6.57 ^c ng/mL | 53.2 ^c ng·h/mL | 70.5 | 7.93 | 0.755 (0.661–0.862) | 0.829 (0.759–0.905) | – | – | – | – | – | – | – |
| Cc1ncc2n1-c1ccc(Cl)cc1C(c1ccccc1F)=NC2 [Midazolam] | – | – | – | – | – | – | – | – | 1.133 (1.025–1.253) | 1.126 (1.026–1.236) | not affected | did not have an effect | 24.1 | 21.4 | 22.9 | 20.2 | 1.130 (1.023–1.247) |
